Experimental data as given in patent publication US9617281B2, “Imidazo[2,1-b]thiazole derivatives, their preparation and use as medicaments” (LABORATORIOS DEL DR. ESTEVE S.A., priority 2012, dated 2017).
pKi: −log10 of the molar value. Counter-ions that a name gives are not always drawn.

These compounds were tested against σ1-receptor (Cavia porcellus (Guinea pig), UniProt Q60492) (assay: σ1-receptor binding assay with [3H]-(+)-pentazocine in guinea pig brain membranes). Conditions: radioligand [3H]-(+)-pentazocine 5.0 nM, 150 min at 37° C.
Chain of σ1-receptor (Q60492 whole entry): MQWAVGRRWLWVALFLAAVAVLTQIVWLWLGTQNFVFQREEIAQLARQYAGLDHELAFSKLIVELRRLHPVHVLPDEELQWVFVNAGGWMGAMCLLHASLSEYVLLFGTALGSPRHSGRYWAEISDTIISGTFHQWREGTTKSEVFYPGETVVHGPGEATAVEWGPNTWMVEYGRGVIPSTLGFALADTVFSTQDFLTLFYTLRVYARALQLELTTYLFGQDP
Procedure: Brain membrane preparation and binding assays for the σ1-receptor were performed as described (DeHaven-Hudkins, D. L., L. C. Fleissner, and F. Y. Ford-Rice, 1992, Characterization of the binding of [^3H](+)pentazocine to a recognition sites in guinea pig brain, Eur. J. Pharmacol. 227, 371-378) with some modifications. Guinea pig brains were homogenized in 10 vols. (w/v) of Tris-HCl 50 mM 0.32 M sucrose, pH 7.4, with a Kinematica Polytron PT 3000 at 15000 r.p.m. for 30 s. The homogenate was centrifuged at 1000 g for 10 min at 4° C. and the supernatants collected and centrifuged again at 48000 g for 15 min at 4° C. The pellet was resuspended in 10 volumes of Tris-HCl buffer (50 mM, pH 7.4), incubated at 37° C. for 30 min, and centrifuged at 48000 g for 20 min at 4° C. Following this, the pellet was re-suspended in fresh Tris-HCl buffer (50 mM, pH 7.4) and stored on ice until use.
The radioligand used was [^3H]-(+)-pentazocine at 5.0 nM and the final volume was 200 μl. The incubation was initiated with the addition of 100 μl of membrane at a final tissue concentration of approximately 5 mg tissue net weight/mL and the incubation time was 150 m. at 37° C. After incubation, the membranes were collected onto pretreated glass fiber filterplate (MultiScreen-FC, Millipore), with polyethylenimine 0.1%. The filters were washed two times with 200 μl of washing buffer (50 mM Tris Cl, pH=7.4) and then 25 μl of Ecoscint H liquid scintillation cocktail were added. Microplates were allowed to set for several hours and then quantified by liquid scintillation spectrophotometry (1450 Microbeta, Wallac). Nonspecific binding was determined with 1 μM haloperidol.
c1ccc(-c2nn3cc(COCCN4CCCCCC4)nc3s2)cc1 [Compound 4, 6-((2-(azepan-1-yl)ethoxy)methyl)-2-phenylimidazo[2,1-b][1,3,4]thiadiazole maleate] showed a pKi of 6.77.
Compound c1ccc(-c2cn3cc(CN4CCCCCC4)nc3s2)cc1 [Compound 6, 6-(azepan-1-ylmethyl)-2-phenylimidazo[2,1-b]thiazole maleate] has a pKi of 7.80.
CN1CCN(Cc2cn3cc(-c4ccccc4)sc3n2)CC1 [Compound 7, 6-((4-methylpiperazin-1-yl)methyl)-2-phenylimidazo[2,1-b]thiazole maleate] gave a pKi of 7.25.
Compound c1ccc(-c2cn3cc(COCCN4CCCCCC4)nc3s2)cc1 [Compound 9, 6-((2-(azepan-1-yl)ethoxy)methyl)-2-phenylimidazo[2,1-b]thiazole maleate] has a pKi of 7.40.
c1ccc(-c2cn3cc(COCCN4CCCC4)nc3s2)cc1 [Compound 10, 2-phenyl-6-((2-(pyrrolidin-1-yl)ethoxy)methyl)imidazo[2,1-b]thiazole maleate] showed a pKi of 6.72.
Work on CN1CCN(Cc2cn3nc(-c4ccccc4)sc3n2)CC1 [Compound 11, 6-((4-methylpiperazin-1-yl)methyl)-2-phenylimidazo[2,1-b][1,3,4]thiadiazole maleate] yielded a pKi of 6.59.
For c1ccc(-c2cn3cc(CN4CCCCCC4)sc3n2)cc1 [Compound 12, 2-(azepan-1-ylmethyl)-6-phenylimidazo[2,1-b]thiazole maleate], the pKi was 7.00.
CN1CCN(Cc2cn3cc(-c4ccc(F)cc4)sc3n2)CC1 [Compound 13, 2-(4-fluorophenyl)-6-((4-methylpiperazin-1-yl)methyl)imidazo[2,1-b]thiazole maleate] gave a pKi of 6.68.
